Patent US12083230B2, “Nano-encapsulation using GRAS materials and applications thereof” (priority 2015, dated 2024)

How the values were obtained:
V. cholerae WN1102 = assay: Bioluminescence response of V. cholerae WN1102 (in vitro bioactivity assay); format: cell-based; settings: suggested by bioactivity of the flow through
Text: FIG. 10(a) illustrates bioluminescence response of V. cholerae WN1102 supplemented with varying amounts of CAI-1-loaded Zein/CAS/VitE-Ac composite nanoparticles in PBS according to some embodiments described herein.
The bioactivity of blank Zein/CAS/VitEA particles was not detectable (FIG. 10b). […] The flow-through after centrifugal filtration can be regarded as a correlate for encapsulation efficiency of CAI-1. Bioactivity of the flow through was observed only at very high concentrations, approximately 1,000-10,000-fold higher than CAI-1 NPs.

V. cholera cultures = assay: Growth of V. cholera cultures at 37° C.; format: cell-based; settings: during the time tested
Protocol: FIG. 10(b) illustrates growth of V. cholera cultures at 37° C. in response to addition of CAI-1-loaded Zein/CAS/VitE-Ac nanoparticles according to some embodiments described herein.
Changes in size and PDI could only be observed for the three-fold protein per amount of drug formulation (FIG. 9a). […] All parts of the formulation were necessary for the formation of nanoparticles with defined size. […] FNP of CAI-1 alone yielded a polydisperse emulsion, which then agglomerated and settled out over time.

[1] = cited from earlier work; for Log D: pH 7.4
[2] = Nanoparticle solution stability (milliQ H2O, PBS pH7.4, LB50, 2% bile salts, pH2.0) by DLS; format: physicochemical; settings: 10% wt. Nile Red loading
Protocol: Using a Zetasizer® Nano-ZS (Malvern instruments, Malvern, UK), dynamic light scattering (DLS) size measurements were performed on samples directly after FNP. Samples were diluted with ultra-pure water to avoid multiple scattering and analyzed at 25° C. using a detection angle of 173°. The reported size is the intensity-weighted average diameter as reported by the Malvern deconvolution software in Normal Mode analysis.
Initially, nanoparticle formulations were screened for stability at physiologic conditions (PBS) and conditions relevant to the in vitro model of V. cholera.
Various zein-to-casein ratios were produced to further investigate formulation stability in physiological environments relevant to oral delivery. Zein to casein ratios 4:1, 2:1, and 1:1 FIG. 17 in PBS, pH2.0, LB50 and 2% bile salts were investigated.

[3] = Nile Red encapsulation efficiency by UV-Vis of flow through after centrifugal filtration; format: physicochemical; settings: in Zn/CAS-VitE-Ac NPs, all stable formulations (0.2%-5 wt.%)
Text: The utility of an encapsulation method depends on its encapsulation capacity and efficiency for various compounds. […] Nile Red was encapsulated at 0.2%-5 wt. %. At 0.1% wt. […] Encapsulation efficiency of Nile Red in Zn/CAS-VitE-Ac NPs was >98% for all stable formulations as determined by UV-Vis measurement of the flow through after centrifugal filtration (FIG. 7). With increasing Nile Red concentration in the core, the mean nanoparticle diameter increases (FIG. 6b). The florescence intensity is expected to increase with higher dye loading per particle. This can be seen in FIGS. 6(c) and 6(d) for two different wavelengths (500 nm excitation, 690 nm emission) and core loadings of 0.2-1% wt.

Structure (SMILES)	Log D [1]	log P [1]	further results
CCCCCCCCCC(=O)[C@@H](O)CC [CAI-1]	4.30		Encapsulation efficiency of CAI-1 during FNP (V. cholerae WN1102): > 98%; Effect on the growth of cells (V. cholera cultures): no apparent effect
NC(=O)CC[C@@H]1NC(=O)[C@H](Cc2ccccc2)NC(=O)[C@H](Cc2ccc(O)cc2)NC(=O)CCSSC[C@@H](C(=O)N2CCC[C@H]2C(=O)N[C@H](CCCN=C(N)N)C(=O)NCC(N)=O)NC(=O)[C@H](CC(N)=O)NC1=O [Desmopressin]	-7.34		
Nc1ccc(O)c(C(=O)O)c1 [Mesalazine]	-1.98	0.46	
CN(C)c1ccc(/N=N/c2ccccc2C(=O)O)cc1 [Methyl Red]	1.46		
CCN(CC)c1ccc2nc3c4ccccc4c(=O)cc-3oc2c1 [Nile Red]	4.46		NP behaviour after FNP at high dye loading [2]: immediate aggregation of NPs; Encapsulation efficiency of Nile Red [3]: > 98%
c1cc2ccc3cccc4ccc(c1)c2c34 [Pyrene]	4.92	5.17	
